Test results taken from PMC11172786, “Melatonin-Regulated Chaperone Binding Protein Plays a Key Role in Cadmium Stress Tolerance in Rice, Revealed by the Functional Characterization of a Novel Serotonin N-Acetyltransferase 3 (SNAT3) in Rice” (International Journal of Molecular Sciences, 2024).

Columns and labels:
OsSNAT3 (OsSNAT3-His6) = target: T1, OsSNAT3 (OsSNAT3-His6) (Oryza sativa, UniProt B7F8K4); assay: inhibition of serotonin N-acetylation, HPLC; format: biochemical; details: 0.5 mM serotonin and 0.5 mM amine, pH 8.8, 55 °C; possible alternative substrate; tag form not stated for this figure
T1 construct: cDNA-derived N-terminus MGAGEG, C-terminus QAATKK
T1 sequence (B7F8K4 1-179): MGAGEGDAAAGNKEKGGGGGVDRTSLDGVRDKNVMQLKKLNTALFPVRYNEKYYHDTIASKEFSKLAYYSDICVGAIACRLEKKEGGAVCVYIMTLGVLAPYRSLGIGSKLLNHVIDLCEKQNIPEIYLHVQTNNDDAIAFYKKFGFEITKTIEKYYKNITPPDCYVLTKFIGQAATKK

[1] = substrate: NCCc1c[nH]c2ccc(O)cc12; assay: HPLC detection of N-acetylserotonin, Lineweaver-Burk; format: biochemical, Oryza sativa; details: 0.5 mM acetyl-CoA, 100 mM potassium phosphate pH 8.8, 45 °C
[2] = substrate: COc1ccc2[nH]cc(CCN)c2c1; assay: HPLC detection of melatonin, Lineweaver-Burk; format: biochemical, Oryza sativa; details: 0.5 mM acetyl-CoA, 100 mM potassium phosphate pH 8.8, 45 °C

Molecule	SNAT activity with 0.5 mM amine (OsSNAT3 (OsSNAT3-His6))	Km [1] [µM]	Km [2] [µM]
NCCCCN [putrescine]	significantly inhibited by putrescine and dopamine	–	–
NCCc1ccc(O)c(O)c1 [dopamine]	significantly inhibited by putrescine and dopamine	–	–
NC[C@H](O)c1ccc(O)cc1 [octopamine]	OsSNAT3 activity was strongly inhibited by spermidine and octopamine (Figure 3C)	–	–
NCCCCNCCCN [spermidine]	OsSNAT3 activity was strongly inhibited by spermidine and octopamine (Figure 3C)	–	–
OsSNAT3 (OsSNAT3-His6) (Oryza sativa Japonica Group) (protein, cDNA-derived N-terminus MGAGEG, C-terminus QAATKK) MGAGEGDAAAGNKEKGGGGGVDRTSLDGVRDKNVMQLKKLNTALFPVRYNEKYYHDTIASKEFSKLAYYSDICVGAIACRLEKKEGGAVCVYIMTLGVLAPYRSLGIGSKLLNHVIDLCEKQNIPEIYLHVQTNNDDAIAFYKKFGFEITKTIEKYYKNITPPDCYVLTKFIGQAATKK	–	1152	1587
